Assay results published in PubChem BioAssay (NCI).
Values joined by “and” are separate entries in the source; they are usually repeats but may differ in a detail not shown here. Equal values may be shown once.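 Grown in 96-well plates, cells were treated for 48 hours with each compound at five concentrations. Insufficient inhibition: endpoint recorded as highest concentration tested. GI50 marks 50% less growth. At the TGI there is no net growth.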

Key:
Assay in all cases: growth of human tumour cells (NCI), 48 h
[1] = system: K-562 leukemia
[2] = system: CCRF-CEM leukemia
[3] = system: DU-145 prostate
[4] = system: HOP-62 NSCLC
[5] = system: PC-3 prostate
[6] = system: OVCAR-8 ovarian
[7] = system: RPMI-8226 leukemia
[8] = system: HCT-116 colon
[9] = system: MDA-MB-231 breast
[10] = system: A549 NSCLC

## COc1ccc2c(C3(c4cn(C)c5cc(OC)ccc45)C(=O)Nc4ccc(Cl)cc43)cn(C)c2c1
[1]
  GI50: 3.38 µM
  TGI: > 100 µM
[2]
  GI50: 3.81 µM
  TGI: > 100 µM
[3]
  GI50: 4.84 µM
  TGI: > 100 µM
[4]
  GI50: 4.2 µM
  TGI: > 100 µM
[5]
  GI50: 3.65 µM
  TGI: > 100 µM
[6]
  GI50: 3.09 µM
  TGI: > 100 µM
[7]
  GI50: 3.94 µM
  TGI: > 100 µM
[8]
  GI50: 3.15 µM
  TGI: 19.7 µM
[9]
  GI50: 1.53 µM
  TGI: 5.1 µM

## CCCCCCNC(=O)Oc1ccc(/C(=C(/C)Cc2ccc(OC)cc2)c2ccc(OCCCN(C)C)cc2)cc1
[1]
  GI50: 3.74 µM
  TGI: 19.1 µM
[2]
  GI50: 16.3 µM
  TGI: 33.8 µM
[3]
  GI50: 16.8 µM
  TGI: 31.3 µM
[4]
  GI50: 18.4 µM
  TGI: 34.2 µM
[5]
  GI50: 14.6 µM
  TGI: 28.2 µM
[6]
  GI50: 17.3 µM
  TGI: 34.5 µM
[10]
  GI50: 16.6 µM
  TGI: 31.2 µM
[7]
  GI50: 15.9 µM
  TGI: 35 µM
[8]
  GI50: 12.6 µM
  TGI: 25.7 µM
[9]
  GI50: 15.3 µM
  TGI: 29.9 µM

## O=[N+]([O-])c1ccc(C2CC(c3ccccc3Cl)=Nc3ccccc3S2=O)cc1 (stereo unspecified)
[1]
  TGI: 4.57 µM
[2]
  TGI: 4.37 µM
[3]
  TGI: 34.1 µM
[4]
  TGI: 23.4 µM
[5]
  TGI: 17.3 µM
[6]
  TGI: 11.7 µM
[10]
  TGI: 38 µM
[7]
  TGI: 4.19 µM
[8]
  TGI: 3.49 µM
[9]
  TGI: 5.29 µM

## FC(F)(F)c1ccc(-c2cnc(-n3cc(COCCN4CCCCC4)nn3)nc2NC2CCCCCC2)cc1
[1]
  GI50: 1.75 µM
  TGI: 7.21 µM
[2]
  GI50: 4.23 µM
  TGI: 10.7 µM
[3]
  GI50: 4.25 µM
  TGI: 7.94 µM
[4]
  GI50: 4.15 µM
  TGI: 8.64 µM
[5]
  GI50: 2.93 µM
  TGI: 6.18 µM
[6]
  GI50: 4.12 µM
  TGI: 8.74 µM
[10]
  GI50: 4.16 µM
  TGI: 8.18 µM
[7]
  GI50: 3.85 µM
  TGI: 9.03 µM
[8]
  GI50: 3.32 µM
  TGI: 7 µM
[9]
  GI50: 3.47 µM
  TGI: 6.86 µM

## C=C1C(=O)O[C@H]2[C@H]1CC/C(COC(=O)CCSCCC(=O)OC/C1=C/CC[C@@]3(C)O[C@H]3[C@H]3OC(=O)C(=C)[C@@H]3CC1)=C\CC[C@@]1(C)O[C@@H]21
[1]
  GI50: 0.371 µM
  TGI: 10.2 µM
[2]
  GI50: 0.314 µM
  TGI: 1.25 µM
[3]
  GI50: 1.36 µM
  TGI: 2.71 µM
[4]
  GI50: 2.36 µM
  TGI: 7.94 µM
[5]
  GI50: 1.82 µM
  TGI: 4.8 µM
[6]
  GI50: 1.57 µM
  TGI: 3.96 µM
[10]
  GI50: 2.54 µM
  TGI: 7.56 µM
[7]
  GI50: 0.383 µM
  TGI: 1.83 µM
[8]
  GI50: 0.206 µM
  TGI: 0.609 µM
[9]
  GI50: 1.09 µM
  TGI: 2.55 µM

## Cc1cn(C2C=CC(CO)O2)c(=O)[nH]c1=O (stereo unspecified)
[1]
  TGI: > 1000 µM
[2]
  TGI: > 1000 µM
[3]
  TGI: > 1000 µM
[4]
  TGI: > 1000 µM
[5]
  TGI: > 1000 µM
[6]
  TGI: > 1000 µM
[10]
  TGI: > 1000 µM
[7]
  TGI: > 1000 µM
[8]
  TGI: > 1000 µM
[9]
  TGI: > 1000 µM

## COC1=C(C)C(=O)c2c(c(CCCl)c3n2CCC3O)C1=O (stereo unspecified)
[1]
  GI50: 2.21 µM
  TGI: > 40.7 µM
[2]
  GI50: 4.6 µM
  TGI: > 72.2 µM
[3]
  GI50: 0.039 µM
  TGI: 1.9 µM
[4]
  GI50: 0.235 µM
  TGI: 1.83 µM
[5]
  GI50: 1.42 µM
  TGI: 10.8 µM
[6]
  GI50: 1.78 µM
  TGI: 23.9 µM
[7]
  GI50: 3.08 µM
  TGI: 21.8 µM
[8]
  GI50: 1.53 µM
  TGI: > 100 µM
[9]
  GI50: 21.8 µM
  TGI: 83 µM

## CCOc1cc(Br)c(C(C)NC(=O)c2cccc(OC)c2)cc1OCC (stereo unspecified)
[1]
  GI50: 3.6 µM
  TGI: > 100 µM
[2]
  GI50: 13.6 µM
  TGI: > 100 µM
[3]
  GI50: 26.4 µM
  TGI: > 100 µM
[4]
  GI50: 10.6 µM
  TGI: > 100 µM
[5]
  GI50: 12.6 µM
  TGI: > 100 µM
[6]
  GI50: 25.6 µM
  TGI: > 100 µM
[10]
  GI50: 10.8 µM
  TGI: > 100 µM
[7]
  GI50: 13.9 µM
  TGI: > 92.1 µM
[8]
  GI50: 4.39 µM
  TGI: > 100 µM
[9]
  GI50: 8.59 µM
  TGI: > 100 µM

## CC1=C(/C=C/C(C)=C/C=C/C(C)=C/C=N/NC(=S)NC(=S)N/N=C/C=C(C)/C=C/C=C(C)/C=C/C2=C(C)CCCC2(C)C)C(C)(C)CCC1
[1]
  GI50: 1.96 µM and 1.29 µM
  TGI: 8.62 µM and 6.63 µM
[2]
  GI50: 1.71 µM and 0.686 µM
  TGI: 25.8 µM and 4.45 µM
[3]
  GI50: 5.79 µM and 2.55 µM
  TGI: 12.5 µM and 8.77 µM
[4]
  GI50: 3.84 µM and 2.42 µM
  TGI: 11.3 µM and 5 µM
[5]
  GI50: 3.52 µM and 1.75 µM
  TGI: 12.7 µM and 7.23 µM
[6]
  GI50: 3.71 µM and 2.06 µM
  TGI: 12.3 µM and 7.32 µM
[10]
  GI50: 5.4 µM and 3.79 µM
  TGI: 12.7 µM and 10.8 µM
[7]
  GI50: 3.31 µM and 1.29 µM
  TGI: 23.1 µM and 4.55 µM
[8]
  GI50: 1.91 µM and 0.916 µM
  TGI: 8.4 µM and 2.23 µM
[9]
  GI50: 3.99 µM and 3.67 µM
  TGI: 11 µM and 10.6 µM

## Cn1nc(-c2ccc(Cl)cc2)nc2c(=O)n(C)c(=O)nc1-2
[1]
  GI50: 1.17 µM
  TGI: 3.22 µM
[2]
  GI50: 1.49 µM
  TGI: 50 µM
[3]
  GI50: 0.89 µM
  TGI: 1.63 µM
[4]
  GI50: 0.886 µM
  TGI: 1.75 µM
[5]
  GI50: 1.19 µM
  TGI: 7.9 µM
[6]
  GI50: 0.976 µM
  TGI: 3.51 µM
[10]
  GI50: 0.768 µM
  TGI: 1.73 µM
[7]
  GI50: 0.886 µM
  TGI: 2.23 µM
[8]
  GI50: 0.32 µM
  TGI: 1.44 µM
[9]
  GI50: 1.28 µM
  TGI: 7.34 µM

## CC(C)(C)c1ccc(OC(=O)Nc2ccc(O)c(C(=O)O)c2)cc1
[1]
  TGI: > 100 µM
[2]
  TGI: > 100 µM
[3]
  TGI: > 100 µM
[4]
  TGI: > 100 µM
[5]
  TGI: > 100 µM
[6]
  TGI: > 100 µM
[10]
  TGI: > 100 µM
[7]
  TGI: > 100 µM
[8]
  TGI: > 100 µM
[9]
  TGI: > 100 µM

## Brc1ccc2[nH]cc(-c3nc(-c4c[nH]c5ncccc45)cs3)c2c1
[1]
  GI50: 2.71 µM
  TGI: > 100 µM
[2]
  GI50: 3.99 µM
  TGI: 71.8 µM
[3]
  GI50: 4.14 µM
  TGI: 15.7 µM
[4]
  GI50: 3.76 µM
  TGI: 17 µM
[5]
  GI50: 2.99 µM
  TGI: 13.5 µM
[6]
  GI50: 4.07 µM
  TGI: > 100 µM
[10]
  GI50: 3.2 µM
  TGI: 16.3 µM
[7]
  GI50: 4.82 µM
  TGI: 63.9 µM
[8]
  GI50: 3.09 µM
  TGI: 12.2 µM
[9]
  GI50: 1.59 µM
  TGI: 5.99 µM

## CCOC(=O)c1c(C)n(Cc2ccccc2)c2c1cc(O)c1[nH]c(Cc3ccccc3)nc12
[1]
  GI50: 0.679 µM
  TGI: > 40 µM
[2]
  GI50: > 21.4 µM
  TGI: > 100 µM
[3]
  GI50: 20.5 µM
  TGI: > 57.7 µM
[4]
  GI50: 17.4 µM
  TGI: > 85.6 µM
[5]
  GI50: 7.88 µM
  TGI: > 100 µM
[6]
  GI50: 29.6 µM
  TGI: > 100 µM
[10]
  GI50: 12.4 µM
  TGI: 65.7 µM
[7]
  GI50: 11.5 µM
  TGI: > 100 µM
[8]
  GI50: 5.91 µM
  TGI: > 43.5 µM
[9]
  GI50: 20.1 µM
  TGI: > 85.9 µM

## Clc1ccc(-c2nnc(-c3cccc4ccccc34)o2)cc1Cl
[1]
  TGI: > 100 µM
[2]
  TGI: > 100 µM
[3]
  TGI: > 100 µM
[4]
  TGI: > 100 µM
[5]
  TGI: > 100 µM
[6]
  TGI: > 100 µM
[10]
  TGI: > 100 µM
[7]
  TGI: > 100 µM
[8]
  TGI: > 100 µM
[9]
  TGI: > 100 µM
